For 83 substances, Count results are on record in US20240207421A1, “NERVE TARGETING PEPTIDES AND METHODS OF USE” (ALUME BIOSCIENCES, INC., priority 2020, published 2024).

This assay relates to Laminin 421/521. Kind of assay: Phage display library screening (Example 2), NEB laminin-binding peptides. The arrangement: species or system human. Particulars: Laminin 421/521, not 211 and 411; combined unique sequence count, Python/R script analysis. The procedure:
Phage display library screens were used to identify peptides that bind to target proteins (including specific laminin trimers) that are expressed in human nerves, as described in Table 3. These screens were also carried out to identify peptides that could bind selectively to nerves versus muscle. Such peptides could therefore be useful for systemic in-vivo labeling of nerves during fluorescence assisted surgery. Specifically, m 13 phage libraries expressing 7 or 12 random amino acid peptides, or a cyclic peptide CX7C, on the N-terminus of the minor coat protein pIII (New England Biolabs; NEB) were processed through multiple rounds of selection for binding to target proteins expressed in nerves, or to excised human nerves, nerve extracts, or muscle, as described further below.
For screening against the specified target proteins in Table 1, including LN211, LN411, LN421, and LN521, the phage library was processed by up to 4 binding and wash cycles. For selection, phage libraries were incubated for up to 24 hours at 4° C. in 96 well plates that had been coated with one of the target proteins. Plates were then washed with PBS and phage were eluted using 0.2M glycine pH 2.0. Phage supernatants where then neutralized with Tris pH 9.0 prior to plating on TGI bacteria and LB agar plates. Colonies were counted to determine titer followed by DNA preparation of pools of phage and NextGen sequencing. After rounds of selection, phage were pooled and amplified for iterative selection. Phage that were bound at each round were sequenced. NextGen sequencing of pools after 2, 3 and 4 rounds of selection was used to isolate candidate sequences that were analyzed further to identify those that specifically bound each unique target protein.
For all NEB sequence datasets, a python script was used to translate, trim, and filter the peptide sequences (see details above). A python script was used to group peptides from different assays according to laminin complex binding (laminin complex 211, 411, 421, or 521) and combine the unique sequence counts for each peptide. An R script was written to merge the peptide sequences from different data files and determine peptides that specifically bind one laminin complex and not the others, or that bind both laminin 421 and 521 but not 211 and 411.
As for “GGWQSLWDKPEH (Laminin 421/521-binding peptide)”, the Count was 31. The result for “GGYDLPWANWQN (Laminin 421/521-binding peptide)” reads 497; that for “GHPWTEIDFMSS (Laminin 421/521-binding peptide)”, 50. Next, “GHRTLVTSERYL (Laminin 421/521-binding peptide)”: 38. Next, “GINLRALDLHAN (Laminin 421/521-binding peptide)”: 27; “GIVPSRHTTGLG (Laminin 421/521-binding peptide)”: 28; “GKPDHRLVSLWR (Laminin 421/521-binding peptide)”: 309.

On to “GLLDWGSLQGGN (Laminin 421/521-binding peptide)”, for which the Count is recorded as 30.

Take “GPKNHHQ (Laminin 421/521-binding peptide)”: the Count is listed as 51.

On to “GPLLFRG (Laminin 421/521-binding peptide)”, for which the Count turned out to be 30. The result for “GPMLKNLSDAVT (Laminin 421/521-binding peptide)” reads 31.

“GQPRNIHLPGTH (Laminin 421/521-binding peptide)”: the Count worked out at 40. The result for “GRTIHSM (Laminin 421/521-binding peptide)” reads 95. Next, “GSGFRNEEHSAH (Laminin 421/521-binding peptide)”: 51.

As to “GSLDMGNNKQPV (Laminin 421/521-binding peptide)”, the Count stood at 62. The result for “GSPEKRT (Laminin 421/521-binding peptide)” reads 30; that for “GSTTHPHFGLPG (Laminin 421/521-binding peptide)”, 40.

As for “GWIQDTFVLGRS (Laminin 421/521-binding peptide)”, the Count is listed as 40.

As for “GWTSDLSRNVRG (Laminin 421/521-binding peptide)”, the Count is reported as 28. The result for “GYDLSRLWGMAS (Laminin 421/521-binding peptide)” reads 39; that for “GYRSFIHENWSI (Laminin 421/521-binding peptide)”, 68; that for “HASNQRV (Laminin 421/521-binding peptide)”, 93. Next, “HPAWADFFTMSS (Laminin 421/521-binding peptide)”: 29; “HQSLAGVPWSRH (Laminin 421/521-binding peptide)”: 53. Next, “HQSVTGVRSHFH (Laminin 421/521-binding peptide)”: 27.

For “HSFLGAR (Laminin 421/521-binding peptide)”, the Count is reported as 44. As to “HSTYAPG (Laminin 421/521-binding peptide)”, the Count is 33. The result for “HTQIHRL (Laminin 421/521-binding peptide)” reads 28. The result for “IDLSLRS (Laminin 421/521-binding peptide)” reads 29.

As to “IDQSGLQKSGMK (Laminin 421/521-binding peptide)”, the Count came to 29. Next, “IPVGERK (Laminin 421/521-binding peptide)”: 124; “KALGYSLVGGEW (Laminin 421/521-binding peptide)”: 134; “KASIAYD (Laminin 421/521-binding peptide)”: 30. The result for “KFADTKLTSLRY (Laminin 421/521-binding peptide)” reads 28; that for “KISMNRLHANFT (Laminin 421/521-binding peptide)”, 110; that for “KPILWNRSLNAL (Laminin 421/521-binding peptide)”, 52. Next, “KQELSDNLASHR (Laminin 421/521-binding peptide)”: 50; “LARSSIMAANNV (Laminin 421/521-binding peptide)”: 42; “LDRNADSVRAVL (Laminin 421/521-binding peptide)”: 46.

Turning to “LGHQNGGRADMW (Laminin 421/521-binding peptide)”, the Count is reported as 35. As to “LGPSTQGAGQTR (Laminin 421/521-binding peptide)”, the Count was determined as 38. Take “LGSSRSPSSFLG (Laminin 421/521-binding peptide)”: the Count worked out at 29. Next, “LGYGQGTPHRSN (Laminin 421/521-binding peptide)”: 30. The result for “LLAGPFR (Laminin 421/521-binding peptide)” reads 44; that for “LPMLRHS (Laminin 421/521-binding peptide)”, 32; that for “LQSNAADHHQGM (Laminin 421/521-binding peptide)”, 75.

Regarding “MTHSAHNSQKTN (Laminin 421/521-binding peptide)”, the Count amounted to 117. Next, “MTNSGAK (Laminin 421/521-binding peptide)”: 35; “NDTGRHASGISK (Laminin 421/521-binding peptide)”: 32. The result for “NGHEVQSRAANR (Laminin 421/521-binding peptide)” reads 29.

As for “NHDQGSLTRWRS (Laminin 421/521-binding peptide)”, the Count was found to be 31. Next, “NNNAAMQNHGVR (Laminin 421/521-binding peptide)”: 51; “NWTHLGVARLQP (Laminin 421/521-binding peptide)”: 36; “QALRTNYSPLNS (Laminin 421/521-binding peptide)”: 32. Next, “QGHPFIY (Laminin 421/521-binding peptide)”: 40; “QGWEFQVPARHS (Laminin 421/521-binding peptide)”: 30. Next, “QGWFRHS (Laminin 421/521-binding peptide)”: 121; “QGWKDRLPIWRY (Laminin 421/521-binding peptide)”: 29. On to “QINWKQADKNAD (Laminin 421/521-binding peptide)”, for which the Count came out at 33. Consider “QLQHVHL (Laminin 421/521-binding peptide)”, for which the Count was 28. The result for “QPTPSQIKFTRT (Laminin 421/521-binding peptide)” reads 28. The result for “QTFGYSMFNVRT (Laminin 421/521-binding peptide)” reads 30; that for “QTFHEYLNPARG (Laminin 421/521-binding peptide)”, 37. The result for “QTLQTRH (Laminin 421/521-binding peptide)” reads 44.

In the case of “QTRWDDGSYQIS (Laminin 421/521-binding peptide)”, the Count was found to be 49. With “RALDRYLPWSPH (Laminin 421/521-binding peptide)”, the Count worked out at 28. Next, “RAQAHQV (Laminin 421/521-binding peptide)”: 51; “RLVTASMVSPSF (Laminin 421/521-binding peptide)”: 95. Regarding “RNLHYPLNHPFM (Laminin 421/521-binding peptide)”, the Count came out at 30. The result for “SDRGKTVLHGQI (Laminin 421/521-binding peptide)” reads 54; that for “SFRNLEKLSLWS (Laminin 421/521-binding peptide)”, 50. The result for “SGWEGKTHQGVR (Laminin 421/521-binding peptide)” reads 69; that for “SHDVANGTSVRT (Laminin 421/521-binding peptide)”, 29. As to “SLAVANTRFMIR (Laminin 421/521-binding peptide)”, the Count is listed as 49. The result for “SLLSVVNTSSKS (Laminin 421/521-binding peptide)” reads 31; that for “SLNTTWVSPMMK (Laminin 421/521-binding peptide)”, 37. On to “SLPYAASLNSVE (Laminin 421/521-binding peptide)”, for which the Count worked out at 28. “SNPKHVSSLGQM (Laminin 421/521-binding peptide)”: the Count is 40. The result for “SPDRTNWGWQTN (Laminin 421/521-binding peptide)” reads 29. The result for “STNVQRA (Laminin 421/521-binding peptide)” reads 28; that for “SVESNSKLTMPR (Laminin 421/521-binding peptide)”, 29.

In the case of “SVLSTGTANQRH (Laminin 421/521-binding peptide)”, the Count stood at 28. The result for “SVQTPMWRSLVG (Laminin 421/521-binding peptide)” reads 28.
